According to PMC7002685, “Inhibition of vascular calcification by inositol phosphates derivatized with ethylene glycol oligomers” (Nature Communications, 2020):
Values joined by “and” are separate entries in the source; they are usually repeats but may differ in a detail not shown here. Equal entries are not always repeated. One block for each compound: values may come before it.

Columns and labels:
[1] = test system: transformation of CPP1 to CPP2 in pooled human serum; assay: In vitro serum calcification propensity (T50) screening assay; format: biochemical; design: key to T50: T50 in minutes (time to 50% CPP phase transition); conditions: for T50: one value per experiment; for activity/unit mass: mean c350 x mw (Na salt); for concentration upon which a T50 of 350 min is reached (c350), mean: mean of n experiments; for concentration upon which a T50 of 350 min is reached (c350), single experiment: one value per experiment (lab journal reference E05-E40)
Description: The compounds were ranked for calcification inhibition activity using a nanoparticle-based test, developed for risk stratification, which measures the propensity for calcification in patient serum. […] The time, after which 50% of CPP phase transition occurred (T50), was assessed by time-resolved spectrophotometry at 550 nm (Supplementary Fig. 1a).
The screening assay was performed as described previously. In brief, pooled human serum (H4522, Sigma-Aldrich) stored at −20 °C was thawed at 37 °C, centrifuged (10,000 × g, and 4 °C, 30 min) (5427R, Eppendorf, Switzerland), and sterile filtered (0.22 μm filter, Millipore, Merck KGaA) to remove potential cryoprecipitates (cleared human serum). The calcium solution was 40 mM CaCl2 (102382, Merck KGaA) in HBS, pH 7.4 (RT) (100 mM HEPES (H3375, Sigma-Aldrich) and 140 mM NaCl (1734712, Fisher Scientific, Hampton, NH, USA)). […] All salt solutions and buffers were double sterile filtered (0.22 µm) and pre-warmed to 37 °C prior to use. […] The plate was sealed with an adhesive film and the absorption at 550 nm was measured every 3 min with 1 min in-between shaking for a total of 300 cycles at 37 °C using the infinite M200 microplate reader (Tecan, Männedorf, Switzerland). An A550 vs. time graph was generated and T50 (min) (time at half-maximum transition from CPP1 to CPP2) values were derived by sigmoidal curve fit using Prism 8 (nonlinear regression in the log(agonist) vs. response–variable slope (four parameter mode) using the robust fit fitting method, GraphPad Software, San Diego, CA, USA). Activities between compounds were compared by generating a T50 (min) vs. concentration (µM) graph, calculating nonlinear regression and deriving the concentration required to delay T50 to 350 min (c350) using a standard equation for the dose–response curve, Eq. (1), whereby x = [compound], y = time (min), bottom = baseline response, top = maximum response, T50 = [drug] that leads to half-maximum response, and the hill slope is a factor that describes the steepness of the curve.1 y= bottom+top - bottom/1+T50/x^hillslope.

[2] = Serum calcification propensity assay after 4.5 h incubation in enzymatically active human serum; conditions: compound at c350 concentration, 37 °C; individual donors, Fig. 2e
CPP2 = assay: Competitive 18F-NaF binding assay on CPPs; design: species or system human
Description: A ^18F-NaF-based competitive binding assay was developed to indirectly assess the inhibitor affinity (IC50) to CPPs. The uptake mechanism of ^18F-NaF, a marker of micro-calcification activity by chemisorption onto hydroxyapatite crystals, is contingent on the rapid exchange of hydroxyl (OH^−) groups present on the hydroxyapatite surface (Ca5(PO4)3(OH)) by ^18F^− to form fluoroapatite (Ca5(PO4)3^18F)[34],[54].
Triplicate aliquots of CPP2s (20 µg Ca/mL) in 100 μL assay buffer (100 mM HBS, pH 7.4 (RT)) were incubated for 1 h at RT in the presence of increasing concentrations of compounds in 50 μL Milli-Q water and ^18F-NaF (1 nM) in 50 μL assay buffer, resulting in a total incubation volume of 200 μL (^18F-NaF was prepared using a FASTlab synthesizer (GE Healthcare, Little Chalfont, UK) and commercially available ^18F-NaF cassettes (GE Healthcare)). Maximum radiotracer binding was determined by incubating CPP2s with ^18F-NaF (1 nM) only. The reaction was terminated by rapid filtration through a SOLAμ™ SPE plate (HRP 2 mg/mL 96-well plate, 22 μm; Thermo Fisher Scientific). SPE individual column matrices were washed twice rapidly in assay buffer and radioactivity on the filters determined by an automatic gamma counter (Wizard2 Gamma Counter, Perkin Elmer, Waltham, MA, USA). […] IC50 is the concentration of […] that gives a response half way between the bottom and top parts of the curve. ^18F-NaF micro-PET/computed tomography (micro-PET/CT) was employed for ex vivo analysis of (OEG2)2-IP4’s engagement to target calcified human tissue explants, as described previously. […] Following incubations, samples were washed twice in 0.1 M PBS (1 min per wash) and mounted on a Petri dish for micro-PET/CT imaging (nanoPET/CT, Mediso, Budapest, Hungary). In total, seven samples from the femoral arteries of three patients with ischemic peripheral disease and three samples from native aortic valves of three patients undergoing valve replacement surgery were used. All samples were collected at the time of surgery and stored in 4% paraformaldehyde at RT until further use. All patients gave their written, informed consent. All procedures had local ethical approval (06/S0703/110, 12/WS/0227, 09/S0703/118, and 12/NW/0036). All studies were approved by East and West Scotland Research Ethics Committees, and all experiments were conducted according to the principles expressed in the Declaration of Helsinki.

Structure (SMILES): COCCOCCOCCOCCOCCOCCOCCOCCOCCOCCOCCO[C@@H]1[C@@H](OP(=O)(O)O)[C@H](OCCOCCOCCOCCOCCOCCOCCOCCOCCOCCOCCOC)[C@@H](OP(=O)(O)O)[C@@H](OP(=O)(O)O)[C@H]1OP(=O)(O)O [(OEG11)2-IP4, 4,6-Di-O-(methoxy-undecaethyleneglycol)-myo-inositol-1,2,3,5-tetrakis(phosphate)]
T50 ([1]; concentration 0.3 μM): 225.5 and 216.3 and 217.233
T50 ([1]; concentration 1 μM): 254.967 and 243.067 and 240.833
T50 ([1]; concentration 3 μM): 330.833 and 306.033 and 295.1
T50 ([1]; concentration 5 μM): 429.233 and 399.933 and 420.733
fold greater molar activity in delaying serum calcification propensity than IP6 ([1]; from c350): ~10 fold
activity/unit mass [1]: 6.28 mg/L
concentration upon which a T50 of 350 min is reached (c350), mean [1]: 3.8 µM
concentration upon which a T50 of 350 min is reached (c350), single experiment [1]: 3.4 µM and 3.9 µM
ΔT50 after 4.5 h vs 0 h incubation in enzymatically active human serum [2]: -7 min and 2 min and 28 min and -24 min

IC50 (CPP2; CPP2 20 µg Ca/mL, 18F-NaF 1 nM, 1 h RT, read-out: IC50 (reduction of 18F binding to CPP)): 900 nM
18F-NaF percentage binding to CPP2 (CPP2; concentration 0.75 (unit not given)): 116.838% and 100.543% and 117.872%
18F-NaF percentage binding to CPP2 (CPP2; concentration 2.5 (unit not given)): 108.056% and 108.706% and 117.126%
18F-NaF percentage binding to CPP2 (CPP2; concentration 7.5 (unit not given)): 96.3113% and 120.411% and 97.661%
18F-NaF percentage binding to CPP2 (CPP2; concentration 25 (unit not given)): 95.6416% and 106.619%
18F-NaF percentage binding to CPP2 (CPP2; concentration 75 (unit not given)): 102.247% and 106.699% and 103.897%
18F-NaF percentage binding to CPP2 (CPP2; concentration 250 (unit not given)): 99.9294% and 104.809% and 85.4465%
18F-NaF percentage binding to CPP2 (CPP2; concentration 1750 (unit not given)): 35.8884% and 43.4211% and 42.6767%
18F-NaF percentage binding to CPP2 (CPP2; concentration 2500 (unit not given)): 62.647% and 51.2379% and 44.8192%
18F-NaF percentage binding to CPP2 (CPP2; concentration 7500 (unit not given)): 62.7542% and 48.4658% and 45.2944%
18F-NaF percentage binding to CPP2 (CPP2; concentration 25000 (unit not given)): 44.4078% and 32.6852% and 32.8795%
18F-NaF percentage binding to CPP2 (CPP2; concentration 75000 (unit not given)): 35.0722% and 24.2405% and 29.2905%
18F-NaF percentage binding to CPP2 (CPP2; concentration 250000 (unit not given)): 26.7145% and 19.4967% and 18.0105%
18F-NaF percentage binding to CPP2 (CPP2; concentration 750000 (unit not given), replicates Fig. 2c): 36.7136% and 30.5284% and 26.7151%
Structure (SMILES): NCCCC(O)(P(=O)(O)O)P(=O)(O)O [Alendronate, alendronate]
T50 ([1]; concentration 0.3 μM): 213.8 and 221.6 and 208.733 and 230.4 and 221.333 and 196.833
T50 ([1]; concentration 1 μM): 222.967 and 230.933 and 225.333 and 238.6 and 229.833 and 230.667
T50 ([1]; concentration 3 μM): 261.733 and 253 and 230.467 and 264.833 and 255.1 and 255.367
T50 ([1]; concentration 10 μM): 345.567 and 345.233 and 327.433 and 380.1 and 360.1 and 348.633
T50 ([1]; concentration 30 μM): 770.3 and 707.4
activity/unit mass [1]: 2.69 mg/L
concentration upon which a T50 of 350 min is reached (c350), mean [1]: 9.9 µM
concentration upon which a T50 of 350 min is reached (c350), single experiment [1]: 9.9 µM and 10.3 µM and 8.3 µM and 9.4 µM and 10.2 µM
